Test results taken from the NIST ThermoML archive (doi:10.1021/acs.jced.5b00122).
± gives the expanded uncertainty stated by the source.

Details: 298.15 K; 101.33 kPa; Liquid; Vibrating tube method

Row | SMILES | mass density
1 | CCO [ethanol] | 787.577 ± 1.6 kg/m3
2 | COCCO [2-methoxyethan-1-ol] | 960.892 ± 1.9 kg/m3
3 | CCCOCCO [2-propoxyethanol] | 907.878 ± 1.8 kg/m3

Other lines, results leading:

Row | mass density | SMILES
4 | 801.08 ± 1.6 kg/m3 | CCCO [propan-1-ol]
5 | 781.214 ± 1.6 kg/m3 | CC(C)O [propan-2-ol]
6 | 787.52 ± 1.6 kg/m3 | CO [methanol]
